Assay results from patent US20030124132A1 (University of Texas, published 2003).

What was measured:
TNFα = TNFα serum levels in treated animals (Quantikine-M kit); type: in vivo, mice; conditions: tTF containing no endotoxin (n=6); any of the time points
Experimental: (§1) Mice were closely observed after treatment for clinical signs of toxicity and clinical status was documented at defined time points (5 minutes, 10 minutes, 15 minutes, 30 minutes. 1 hour, 2 hours, 24 hours, 48 hours, 72 hours). Blood samples were taken from the tail vein at 1 hour, 2 hours and 24 hours to measure TNFα blood levels. Three days after treatment, the mice were anesthetized, blood samples were taken from the vena cava for coagulation tests, and an autopsy was performed to document any changes in gross pathology. Tumors, lymph node metastases and the major normal organs (heart, lung, brain, liver, kidney, colon, spleen, pancreas) were harvested and prepared for histological analysis.
TNFα levels in serum were deter-mined using the Quantikine-M kit (R&D Systems, Minneapolis, Minn.) according to the manufacturer's instructions.

[1] = tested on: 2F2B mouse endothelial cells; assay: Binding of tTF to tissue factor-expressing endothelial cells (FACS, cell bound coagulation assay); type: cell-based; conditions: FACS analysis or cell bound coagulation assay
Experimental: Cells were washed and coagulation factor mix (as described above) was added. S2765 substrate was added and Factor Xa generation was measured as described above.
2F2B cells were stimulated with LPS (20 μg/ml) or TNFα (500 U/ml) for 4 h at 37° C. […] Fluorescent cells were detected on a flow cytometer (Becton Dickinson, San Jose, Calif.).

C1300 (Muγ) tumors = assay: Coaguligand (B21-2/10H10 + tTF) treatment of C1300 (Muγ) tumors; type: in vivo, BALB/c nu/nu mice; conditions: paraffin sections, 30 minutes to 24 hours after administration
Text: To improve the C1300 (Muγ) tumor model, the C1300 (Muγ) cell line was subcloned into a cell line that can grow without being mixed with its parental cell, C1300, but still express the I-A^d MHC Class II antigen on the endothelial cells of the tumor. […] Vessels in other normal tissues were unstained.
Vessels contained platelet aggregates, packed red cells and fibrin. At this time, tumor-cells were viable, being indistinguishable morphologically from tumor cells in untreated mice. […]
To establish tumors, 10^6 to 1.5×10^7 tumor cells were injected subcutaneously into the right anterior flank of the mice. […] Other mice received equivalent quantities IgG, Fab′ or bispecific antibody alone. […]
Twenty-four hours after being injected with tTF or immunoglobulin-tTF conjugates, the mice were anesthetized with metophane and were exsanguinated by perfusion with heparinized saline. […] Blood vessels having open lumens containing erythrocytes and blood vessels containing thrombi were counted. […]
Other mice received equivalent quantities of bispecific antibody alone. […] Perpendicular tumor diameters were measured at regular intervals and tumor volumes were calculated.

L540 tumor blood vessels = assay: Thrombosis of L540 tumor vessels by anti-VCAM-1·tTF coaguligand; type: in vivo, mice; conditions: equivalent quantities
Text: Before coaguligand injection, tumors were viable, having a uniform morphology lacking regions of necrosis. […] Within four hours of coaguligand injection, 40-70% of blood vessels were thrombosed. despite the initial staining of only 20-30% of tumor blood vessels. The thrombosed vessels contained occlusive platelet aggregates, packed erythrocytes and fibrin. In several regions, the blood vessels had ruptured, spilling erythrocytes into the tumor interstitium.

C1300 Muγ tumors = assay: Anti-tumor effects of tTF and immunoglobulin-tTF in C1300 Muγ tumors; type: in vivo, nu/nu mice; conditions: tTF alone or mixed with control bispecific antibodies
Experimental: The tumor test systems were: i) L540 human Hodgkin's disease tumors growing in SCID mice; ii) C1300 Muγ (interferon-secreting) neuroblastoma growing in nu/nu mice; iii) H460 human non-small cell lung carcinoma growing in nu/nu mice. To establish solid tumors, 1.5×10^7 tumor cells were injected subcutaneously into the right anterior flank of SCID or BALB/c nu/nu mice (Charles River Labs., Wilmingham, Mass.). When the tumors had grown to various diameters, mice were assigned to different experimental groups, each containing 4 to 9 mice.
Other mice received equivalent quantities of bispecific antibody alone. The injections were performed over ˜45 seconds into one of the tail veins, followed by 200 μl of saline. The infusions were repeated six days later. Perpendicular tumor diameters were measured at regular intervals and tumor volumes were calculated.
Mice bearing small (300 mm^3) C1300 Muγ tumors were injected intravenously with 16-20 μg tTF219. The treatment was repeated one week later. […] One week after the second treatment with tTF219, tumors were 60% of the size of tumors in mice receiving diluent alone. The greater effectiveness of the second injection probably derives from the greater thrombotic action of tTF219 on vessels in large tumors, observed above.
Mice bearing small (300 mm^3) subcutaneous C1300 Muγtumors were treated with tTF219 or with a complex of tTF219 and a bispecific antibody, OX7 Fab′/10H10 Fab′, not directed to a component of the tumor environment. The treatment was repeated 6 days later.

[2] = tested on: L540rec human Hodgkin's lymphoma tumors; assay: Tumor tissue necrosis in L540 Hodgkin's lymphoma-bearing mice after tTF and/or endotoxin; type: in vivo, SCID mice
Experimental: For in vivo studies, a metastasizing mouse model for human Hodgkin's lymphoma was used. 1×10^7 L540rec cells were injected subcutaneously into the right flank of SCID mice resulting in a subcutaneous tumor with lymph node metastases in the regional lymph node stations. Subcutanous tumors were measured with a caliper in three perpendicular directions a. b, and c, and volumes calculated according to the formula V=π/6×a×b×c.
Treatment was initiated when subcutaneous tumors reached a size of 150 to 300 μl. Reagents were administered into the lateral tail vein.
as §1
Tissue samples harvested at the time of autopsy were fixed in 3% NBF (normal buffered formalin) and embedded in paraffin wax. Tissue blocs were cut, dewaxed and stained with hematoxilin and eosin (H&E). Tissue sections were analyzed on a light microscope by two independent investigators and histological findings were documented. Tumor sections with necrotic areas were scanned with a GS-700 imaging densitometer (Biorad, Hercules, Calif.) and areas of necrosis were calculated as % of total section area. Statistical Analysis was performed using SPSS software (SPSS Science Software, Erkrath, Germany) applying the Mann-Whitney-U-test for ungrouped data.

immobilized tTF = biological target: T1, immobilized tTF (Homo sapiens, UniProt P13726); assay: Real time binding of tTF to immobilized tTF (surface plasmon resonance); conditions: tTF alone or preincubated with endotoxin or factor VIIa
T1 construct: Recombinant soluble Tissue Factor protein (amino acids 1-219) was extracted from the periplasmic space of transformed E. coli; made in house; host or cells: E. coli (periplasmic secretion, vector pswc7)
T1 sequence (P13726 33-251): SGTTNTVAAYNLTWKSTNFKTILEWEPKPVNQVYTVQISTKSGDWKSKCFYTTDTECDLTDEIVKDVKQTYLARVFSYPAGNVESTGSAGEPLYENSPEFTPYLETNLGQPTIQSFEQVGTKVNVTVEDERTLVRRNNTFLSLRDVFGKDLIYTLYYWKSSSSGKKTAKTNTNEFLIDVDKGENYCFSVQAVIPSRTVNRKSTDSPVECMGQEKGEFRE

## tTF: extracellular domain of the mature Tissue Factor protein (amino acid 1-219), recombinant; depyrogenated in Example X
TNFα
  TNFα in serum: could not be detected
[1]
  binding to endothelial cells expressing tissue factor: no binding of tTF to endothelial cells
C1300 (Muγ) tumors
  thrombi or abnormalities in normal organs: neither thrombi, nor histological or morphological abnormalities were visible
L540 tumor blood vessels
  control reagents causing thrombosis: None
C1300 Muγ tumors
  tumor growth versus antibodies or saline alone: grew significantly more slowly
[2]; Table 2, tTF alone, three days after i.v. treatment
  % tumor necrosis: 4%
[2]; endotoxin-free tTF alone, 4 μg or 16 μg i.v., three days after treatment
  tumor tissue necrosis: 0%
[2]; tTF alone, 4 μg to 16 μg
  anti-tumor effect: no anti-tumor effect
[2]; tTF alone, 100 μg
  anti-tumor effect: anti-tumor effects begin to appear
Immobilized tTF
  binding to immobilized tTF: did not bind to or homodimerize with immobilized tTF
